This note sets out measurements from patent US20050009924A1 (priority 2003, published 2005).

The structures appear in SMILES notation. Bounds are passed on as bounds.

Series [1] is described as follows: MTT relative viability, PhTERT-SEAP (H1299) cells. The note with it: human.
The test system of series [2] is transcriptional activity of hTERT. The experiment in a line: SEAP reporter assay of hTERT expression, PhTERT-SEAP (H1299). It counts as cell-based, human. The conditions noted are these: Homo sapiens, NCI-H1299, H1299, read-out: Relative SEAP activity (%). In outline:
(§1)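 We treated G418-selected reporter cells with varying drug amounts for 24 h and measured SEAP in the heat-inactivated medium as the rate of 405 nm absorbance increase.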

The subject of series [3] is iron-induced lipid peroxidation in rat brain homogenates. The experiment in a line: Iron-induced lipid peroxidation in rat brain homogenates. The conditions noted are these: for Inhibition of LP(10 mM): mean percent inhibition (Table 3).
In series [4] the test system is transcriptional activity of hTERT. The experiment in a line: SEAP reporter assay of hTERT expression, PhTERT-SEAP (hTERT-BJ1). It counts as cell-based, human. The note with it: Homo sapiens, hTERT-BJ1, read-out: Relative SEAP activity (%). In outline: as §1
A short description of series [5]: MTT relative viability, PhTERT-SEAP (hTERT-BJ1) cells. The conditions noted are these: human.
Protocol: The tetrazolium reagent (MTT; 3-(4,5-di-methylthiazol)-2,5-diphenyl tetrazolium bromide, USB) was designed to yield a colored formazan upon metabolic reduction by viable cells. Approximately […] cells were plated onto each well of a 96-well plate and incubated in 5% CO2 at 37° C. for 24 h. To assess the in vitro cytotoxicity, each compound was dissolved in DMSO and prepared immediately before the experiments and was diluted into the complete medium before addition to cell cultures. Test compounds were then added to the culture medium for designated various concentrations. After 48 h, an amount of 25 μL of MTT was added to each well, and the samples were incubated at 37° C. for 4 h. A 100 μL solution of lysis buffer containing 20% SDS and 50% N,N-dimethylformamide was added to each well and incubated at 37° C. for another 16 h. The absorbency at 550 nm was measured using an ELISA reader.
Non small lung cancer cells H1299 (telomerase positive) were grown in RPMI 1640 media supplemented with 10% fetal bovine serum, 100 units/mL penicillin and 100 mg/mL streptomycin in a humidified atmosphere with 5% CO2 at 37° C. The hTERT immortalized hTERT-BJ1 (BD Biosciences Clontech)^39 were grown in DMEM media supplemented with 10% fetal calf serum, 100 units/mL penicillin and 100 mg/mL streptomycin, 1 mM sodium pyruvate, and 4 mM I-arginine in a humidified atmosphere with 5% CO2 at 37° C. Culture media were changed every 3 days. […] The stable clones derived from H1299 or hTERT-BJ1 were cultured using conditions that are similar to their parental cells.
The subject of the next series is rat glioma C6 cells. The experiment in a line: Cytotoxicity assay (XTT colorimetric), C6 cells. The note with it: Rattus norvegicus, C6; 48 h of drug exposure. The series is classed as cell-based.
For a further series, the system named is human hepatoma G2 cells. The experiment in a line: Cytotoxicity assay (XTT colorimetric), Hep G2. The note with it: Homo sapiens, HepG2; 48 h of drug exposure. It counts as cell-based.
Setting [6] is: hTERT-BJ1 cells, stable PhTERT-SEAP reporter clone.

In the case of `CCCC(=O)Oc1cccc2c1C(=O)c1cccc(OC(=O)CCC)c1C2=O` [IIIb, 1,5-Bis(butyryloxy)-anthraquinone], the melting point fell in the range of 211 to 213 °C. In series [1], the viability at 48 h, 2.6 µM was determined as 107 ± 5.6%; the viability at 48 h, 26 µM was found to be 106 ± 3.2%; the viability at 48 h, 260 µM was determined as 87 ± 6.5%. The activity at 2.6 µM in series [2] (2.6 μM) was found to be 114 ± 7.9%. The activity at 26 µM in series [2] (26 μM) amounted to 118 ± 8.4%. Further, the activity at 260 µM in series [2] (260 μM) was 111 ± 4.4%. In series [3] (10 mM), the “Inhibition of LP(10 mM)” value was 54 ± 2.2%. In series [4] (2.6 μM), the activity at 2.6 µM is 107 ± 11.9%. Moreover, in series [4] (26 μM), the activity at 26 µM was determined as 119 ± 8.3%. Besides, the activity at 260 µM in series [4] (260 μM) was 134 ± 3.8%. In addition, in series [5], the viability at 48 h, 2.6 µM turned out to be 109 ± 5.1%; the viability at 48 h, 26 µM came out at 106 ± 5.6%; the viability at 48 h, 260 µM was 85 ± 6.6%. This compound also came in with a 50% inhibitory concentration (IC50) with rat glioma C6 cells of 38.5 ± 2.8 µM. In the series on human hepatoma G2 cells, the IC50 turned out to be 0.02 ± 0.01 µM.
Compound `CCCCCC(=O)Oc1cccc2c1C(=O)c1cccc(OC(=O)CCCCC)c1C2=O` [IIIc, 1,5-Bis(hexanoyloxy)-anthraquinone] returned a melting point of 183 to 184 °C. Also, in series [1], the viability at 48 h, 2.3 µM stood at 117 ± 5.1%; the viability at 48 h, 23 µM turned out to be 114 ± 4.7%; the viability at 48 h, 230 µM is 106 ± 4.3%. Moreover, the activity at 2.3 µM in series [2] (2.3 μM) turned out to be 91 ± 9.9%. In addition, the activity at 23 µM in series [2] (23 μM) was found to be 95 ± 17.4%. Also, the activity at 230 µM in series [2] (230 μM) came out at 95 ± 10.5%. For the same compound, in series [3] (10 mM), the “Inhibition of LP(10 mM)” value was −55 ± 1.5^ %. Further, in series [4] (2.3 μM), the activity at 2.3 µM was found to be 147 ± 18.8%. Also, the activity at 23 µM in series [4] (23 μM) is 149 ± 16.1%. In addition, in series [4] (230 μM), the activity at 230 µM came out at 124 ± 5.3%. Moreover, in series [5], the viability at 48 h, 2.3 µM stood at 119 ± 9.4% and the viability at 48 h, 23 µM was 98 ± 13.4%. Besides, in series [5] (setting [6]), the viability at 48 h, 230 µM is 62 ± 6.4%. In the series with rat glioma C6 cells, this compound gave an IC50 of 39.1 ± 4.1 µM. Also, in the series with human hepatoma G2 cells, the half-maximal inhibitory concentration (IC50) turned out to be 36.2 ± 2.5 µM.
Consider `O=C(Oc1cccc2c1C(=O)c1cccc(OC(=O)c3ccccc3)c1C2=O)c1ccccc1` [IIIe, 1,5-Bis(benzoyloxy)-anthraquinone], for which the melting point is 336 to 338 °C. Moreover, in series [1], the viability at 48 h, 2.2 µM is 99 ± 7.3%; the viability at 48 h, 22 µM worked out at 60 ± 11.9%; the viability at 48 h, 220 µM came to 33 ± 4.7%. Moreover, the activity at 2.2 µM in series [2] (2.2 μM) was determined as 88 ± 10%. Also, the activity at 22 µM in series [2] (22 μM) was 94 ± 8%. Also, the activity at 220 µM in series [2] (220 μM) was determined as 86 ± 4.7%. Moreover, the “Inhibition of LP(10 mM)” value in series [3] (10 mM) is on record as −50 ± 1.9^ %. The activity at 2.2 µM in series [4] (2.2 μM) turned out to be 137 ± 10%. In addition, in series [4] (22 μM), the activity at 22 µM is 122 ± 9.6%. In addition, the activity at 220 µM in series [4] (220 μM) turned out to be 84 ± 21.7%. For the same compound, in series [5], the viability at 48 h, 2.2 µM turned out to be 103 ± 6.5%; the viability at 48 h, 22 µM was found to be 87 ± 9.8%; the viability at 48 h, 220 µM is 51 ± 4.6%. The same compound came in with a concentration for half-maximal inhibition (IC50) with rat glioma C6 cells of 38.7 ± 3.6 µM. The half-inhibitory concentration (IC50) in the series with human hepatoma G2 cells stood at 47.7 ± 5.5 µM.
`Cc1ccccc1C(=O)Oc1cccc2c1C(=O)c1cccc(OC(=O)c3ccccc3C)c1C2=O` [IIIj, 1,5-Bis(2-toluoyloxy)-anthraquinone] came in with a melting point of 262 to 263 °C. Besides, in series [1], the viability at 48 h, 2.1 µM came out at 72 ± 4.9%; the viability at 48 h, 21 µM stood at 36 ± 9.7%; the viability at 48 h, 210 µM amounted to 45 ± 8%. Moreover, in series [2], the activity at 2.1 µM was 97 ± 4.4%, the activity at 21 µM was determined as 91 ± 7.4% and the activity at 210 µM is 90 ± 4.2%. Further, the “Inhibition of LP(10 mM)” value in series [3] (10 mM) is 23 ± 1.1%. Also, in series [4], the activity at 2.1 µM came out at 129 ± 13%, the activity at 21 µM came to 120 ± 24% and the activity at 210 µM amounted to 94 ± 27.1%. In series [5], the viability at 48 h, 2.1 µM turned out to be 118 ± 11.6%; the viability at 48 h, 21 µM is 82 ± 8.5%; the viability at 48 h, 210 µM was 39 ± 13%. Half-maximal inhibition with rat glioma C6 cells (IC50) was put at 25.1 ± 2.8 µM. In the series with human hepatoma G2 cells, the IC50 was 21.6 ± 2.2 µM.
For `Cc1cccc(C(=O)Oc2cccc3c2C(=O)c2cccc(OC(=O)c4cccc(C)c4)c2C3=O)c1` [IIIk, 1,5-Bis(3-toluoyloxy)-anthraquinone], the melting point was 269 to 270 °C. In series [1], the viability at 48 h, 2.1 µM was found to be 26 ± 3.7%; the viability at 48 h, 21 µM was 28 ± 5%; the viability at 48 h, 210 µM worked out at 29 ± 3.3%. In addition, in series [2], the activity at 2.1 µM stood at 104 ± 5.4%, the activity at 21 µM was found to be 116 ± 12.8% and the activity at 210 µM was determined as 110 ± 16.4%. In addition, the “Inhibition of LP(10 mM)” value in series [3] (10 mM) is −32 ± 1.5^ %. In series [4], the activity at 2.1 µM worked out at 141 ± 10.5%, the activity at 21 µM worked out at 124 ± 15.6% and the activity at 210 µM was 86 ± 17.2%. In series [5], the viability at 48 h, 2.1 µM was 98 ± 9.4%; the viability at 48 h, 21 µM is 54 ± 7.5%; the viability at 48 h, 210 µM worked out at 47 ± 4.8%. In the series with rat glioma C6 cells, half-maximal inhibition (IC50) required 30.1 ± 3.3 µM. In the series on human hepatoma G2 cells, this compound returned an IC50 of 18.1 ± 1.5 µM.
For the compound `Cc1ccc(C(=O)Oc2cccc3c2C(=O)c2cccc(OC(=O)c4ccc(C)cc4)c2C3=O)cc1` [IIIl, 1,5-Bis(4-toluoyloxy)-anthraquinone], the melting point is 331 to 332 °C. In series [1], the viability at 48 h, 2.1 µM was found to be 61 ± 5.8%; the viability at 48 h, 21 µM came to 33 ± 2.8%; the viability at 48 h, 210 µM came to 32 ± 5.7%. In series [2], the activity at 2.1 µM is 98 ± 1.1%, the activity at 21 µM is 95 ± 4.3% and the activity at 210 µM turned out to be 95 ± 8.9%. In addition, the “Inhibition of LP(10 mM)” value in series [3] (10 mM) was determined as 33 ± 1.2%. In series [4], the activity at 2.1 µM worked out at 130 ± 8.8%, the activity at 21 µM was found to be 126 ± 13.3% and the activity at 210 µM is 99 ± 15.8%. In series [5], the viability at 48 h, 2.1 µM was 102 ± 13.9%; the viability at 48 h, 21 µM worked out at 98 ± 6.3%; the viability at 48 h, 210 µM stood at 56 ± 6.2%. Also, the half-maximal inhibitory concentration (IC50) in the series on rat glioma C6 cells amounted to 37.6 ± 4.1 µM. The compound further yielded a concentration for half-maximal inhibition (IC50) with human hepatoma G2 cells of 9.3 ± 0.9 µM.
The compound `O=C(Cc1ccccc1)Oc1cccc2c1C(=O)c1cccc(OC(=O)Cc3ccccc3)c1C2=O` [IIIm, 1,5-Bis(phenylacetyloxy)-anthraquinone] had a melting point of 202 to 203 °C. In series [1], the viability at 48 h, 2.1 µM was determined as 91 ± 4.2%; the viability at 48 h, 21 µM worked out at 53 ± 2.3%; the viability at 48 h, 210 µM came out at 30 ± 1.6%. For the same compound, in series [2], the activity at 2.1 µM was found to be 98 ± 0.3%, the activity at 21 µM was determined as 101 ± 6.8% and the activity at 210 µM amounted to 142 ± 14%. For the same compound, in series [3] (10 mM), the “Inhibition of LP(10 mM)” value is given as −1 ± 0.2%. In series [4], the activity at 2.1 µM amounted to 129 ± 4.5%, the activity at 21 µM is 125 ± 4.3% and the activity at 210 µM was 100 ± 17.3%. Besides, in series [5], the viability at 48 h, 2.1 µM was determined as 106 ± 9%; the viability at 48 h, 21 µM is 97 ± 8.2%; the viability at 48 h, 210 µM amounted to 64 ± 10.2%. Also, the midpoint of inhibition in the series on rat glioma C6 cells, the IC50, lay at 39.1 ± 6.2 µM. For the same compound, the IC50 in the series on human hepatoma G2 cells stood at 9 ± 1.5 µM.
In the case of `O=C(CCc1ccccc1)Oc1cccc2c1C(=O)c1cccc(OC(=O)CCc3ccccc3)c1C2=O` [IIIn, 1,5-Bis(phenylpropionyloxy)-anthraquinone], the melting point lay in the range of 219 to 220 °C. Further, in series [1], the viability at 48 h, 2 µM came to 111 ± 0.8%; the viability at 48 h, 20 µM stood at 101 ± 4.3%; the viability at 48 h, 200 µM stood at 54 ± 4.1%. In series [2] (2.0 μM), the activity at 2 µM came to 94 ± 2.5%. For the same compound, the activity at 20 µM in series [2] (20 μM) worked out at 98 ± 4.7%. Moreover, the activity at 200 µM in series [2] (200 μM) is 89 ± 5.2%. In series [3] (0.01 mM), the “Inhibition (%)” value is 50 ± 0.8%. Also, the “Inhibition (%)” value in series [3] (0.1 mM) came out at 95 ± 2.0%. In series [3] (1 mM), the “Inhibition (%)” value is given as more than 100%. In series [3] (10 mM), the “Inhibition (%)” value is more than 100% and the “Inhibition of LP(10 mM)” value was more than 100%. In series [4] (2.0 μM), the activity at 2 µM came out at 126 ± 6.1%. The activity at 20 µM in series [4] (20 μM) was 124 ± 13.4%. The activity at 200 µM in series [4] (200 μM) amounted to 110 ± 10.5%. For the same compound, in series [5] (setting [6]), the viability at 48 h, 2 µM was 111 ± 7.3%; the viability at 48 h, 20 µM stood at 106 ± 6.6%; the viability at 48 h, 200 µM was found to be 76 ± 7.2%. Also, the IC50 in the series on rat glioma C6 cells was 40.1 ± 5.5 µM. The compound further came in with a 50% inhibitory concentration (IC50) in the series on human hepatoma G2 cells of 0.4 ± 0.1 µM.
